Assay results reported in US20080299602A1, “Methods of Employing Vascular Leakage to Diagnose a Capillary Leak Disorder” (priority 2007, published 2008).

Test system: omental vessels of the rat
Assay: Vascular leakage after intravenous bolus of marinobufagenin (FIG. 1), fluorescein-tagged albumin videomicroscopy
Format: in vivo
Settings: bolus of 200 nM marinobufagenin injected intravenously, time increments vs control (Con)
Experimental: FIG. 1 illustrates increasing vascular leakage at time increments from 5 seconds to 50 seconds with Con being the control group.
A bolus of 200 nM marinobufagenin was injected intravenously.
In the experimental procedure, single venules were visualized by way of a videomicroscopic technique, which permits viewing blood flow directly. The rats were injected with albumin that had been tagged with fluorescein dye. The distribution of the albumin in the omental vessels of the rat was then observed with a computer being employed to repeatedly measure the dye in the blood vessel and in the interstitium next to the blood vessel, as well as a remote site, which would serve as the control.

Q: For `C[C@]12CC[C@H](O)C[C@@]1(O)CC[C@@H]1[C@@H]2CC[C@]2(C)[C@@H](c3ccc(=O)oc3)C[C@H]3O[C@]132` [marinobufagenin], which “vascular leakage (dye monitored within the extravascular space)” value is on record?
A: progressive, large leakage
